Laboratory results from patent US20240376100A1 (Redona Therapeutics, Inc., priority 2021, published 2024).
pIC50: −log10 of the molar value. Where a name gives a salt, the structure may show the parent alone.

Each compound was assayed against PAPD5 enzyme (Homo sapiens, UniProt Q8NDF8) (assay: PAPD5 assay (AMP incorporation onto 3'-terminus of RNA substrate, fluorescence quench)). Conditions: PAPD5 protein 0.3 nM, ATP 50 μM, 30 minutes preincubation, room temperature; read-out: Potency PAPD5 IC50.
Type: biochemical
Outline: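 Enzyme at 0.3 nM with 50 μM ATP, pH 7.3 HEPES buffer, preincubated with compound 30 minutes at room temperature; 5 nM 5′-fluorescein RNA substrate and 20 nM TAMRA quench probe then added. Initial rates from kinetic fluorescein decrease over ~90 minutes; IC50 by four-parameter fit.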

PAPD5 enzyme, sequence (Q8NDF8 whole entry): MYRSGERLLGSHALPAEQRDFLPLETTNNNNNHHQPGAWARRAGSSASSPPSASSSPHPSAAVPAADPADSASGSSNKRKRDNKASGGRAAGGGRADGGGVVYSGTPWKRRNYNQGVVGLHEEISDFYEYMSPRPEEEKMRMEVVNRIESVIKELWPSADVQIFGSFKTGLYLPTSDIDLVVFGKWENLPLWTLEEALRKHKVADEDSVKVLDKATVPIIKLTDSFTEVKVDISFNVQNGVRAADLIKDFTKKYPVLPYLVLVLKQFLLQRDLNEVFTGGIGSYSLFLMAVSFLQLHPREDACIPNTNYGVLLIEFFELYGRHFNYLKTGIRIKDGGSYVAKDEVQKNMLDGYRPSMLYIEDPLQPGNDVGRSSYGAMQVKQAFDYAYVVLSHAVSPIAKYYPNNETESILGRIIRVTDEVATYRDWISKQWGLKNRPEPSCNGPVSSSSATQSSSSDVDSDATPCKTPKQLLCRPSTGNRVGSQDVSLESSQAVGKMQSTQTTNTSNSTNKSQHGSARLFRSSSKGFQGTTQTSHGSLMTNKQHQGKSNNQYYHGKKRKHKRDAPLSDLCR

Row | SMILES | pIC50
1 | Cc1cc(N)ncc1-n1cc(C(=O)O)c(=O)c2cc(Cl)c(N3Cc4cccnc4C3)nc21 [Example 78, 1-(6-amino-4-methylpyridin-3-yl)-6-chloro-7-(5,7-dihydro-6H-pyrrolo[3,4-b]pyridin-6-yl)-4-oxo-1,4-dihydro-1,8-naphthyridine-3-carboxylic acid TFA salt] | ≥ 6.00
2 | Cc1cc(N)ncc1-n1cc(C(=O)O)c(=O)c2cc(F)c(N3Cc4cccnc4C3)cc21 [Example 79, 1-(6-amino-4-methylpyridin-3-yl)-7-(5,7-dihydro-6H-pyrrolo[3,4-b]pyridin-6-yl)-6-fluoro-4-oxo-1,4-dihydroquinoline-3-carboxylic acid TFA salt] | ≥ 6.00
3 | Cc1cc(N)ncc1-n1cc(C(=O)O)c(=O)c2cc(C#N)c(N3Cc4cccnc4C3)cc21 [Example 80, 1-(6-amino-4-methylpyridin-3-yl)-6-cyano-7-(5,7-dihydro-6H-pyrrolo[3,4-b]pyridin-6-yl)-4-oxo-1,4-dihydroquinoline-3-carboxylic acid] | ≥ 6.00
4 | CC(=O)Nc1cc(C)c(-n2cc(C(=O)O)c(=O)c3cc(Cl)c(N4Cc5cccnc5C4)cc32)cn1 [Example 81, 1-(6-acetamido-4-methylpyridin-3-yl)-6-chloro-7-(5,7-dihydro-6H-pyrrolo[3,4-b]pyridin-6-yl)-4-oxo-1,4-dihydroquinoline-3-carboxylic acid] | ≥ 6.00
5 | CCC(=O)Nc1cc(C)c(-n2cc(C(=O)O)c(=O)c3cc(Cl)c(N4Cc5cccnc5C4)cc32)cn1 [Example 82, 6-chloro-7-(5,7-dihydro-6H-pyrrolo[3,4-b]pyridin-6-yl)-1-(4-methyl-6-propionamidopyridin-3-yl)-4-oxo-1,4-dihydroquinoline-3-carboxylic acid] | ≥ 6.00
6 | Cc1cc(NC(=O)C(C)C)ncc1-n1cc(C(=O)O)c(=O)c2cc(Cl)c(N3Cc4cccnc4C3)cc21 [Example 83, 6-chloro-7-(5,7-dihydro-6H-pyrrolo[3,4-b]pyridin-6-yl)-1-(6-isobutyramido-4-methylpyridin-3-yl)-4-oxo-1,4-dihydroquinoline-3-carboxylic acid] | ≥ 6.00
7 | O=C(O)c1cn(C2CCN(C(=O)c3ccccc3)CC2)c2cc(N3Cc4cccnc4C3)c(Cl)cc2c1=O [Example 84, 1-(1-benzoylpiperidin-4-yl)-6-chloro-7-(5,7-dihydro-6H-pyrrolo[3,4-b]pyridin-6-yl)-4-oxo-1,4-dihydroquinoline-3-carboxylic acid] | ≥ 6.00
8 | O=C(O)c1cn(Cc2c[nH]cn2)c2cc(N3Cc4cccnc4C3)c(Cl)cc2c1=O [Example 85, 1-((1H-imidazol-4-yl)methyl)-6-chloro-7-(5,7-dihydro-6H-pyrrolo[3,4-b]pyridin-6-yl)-4-oxo-1,4-dihydroquinoline-3-carboxylic acid] | ≥ 6.00
9 | Cc1cc(N(C)C)ncc1-n1cc(C(=O)O)c(=O)c2cc(F)c(N3Cc4cccnc4C3)cc21 [Example 86, 7-(5,7-dihydro-6H-pyrrolo[3,4-b]pyridin-6-yl)-1-(6-(dimethylamino)-4-methylpyridin-3-yl)-6-fluoro-4-oxo-1,4-dihydroquinoline-3-carboxylic acid] | ≥ 6.00
10 | CNc1cc(C)c(-n2cc(C(=O)O)c(=O)c3cc(F)c(N4Cc5cccnc5C4)cc32)cn1 [Example 87, 7-(5,7-dihydro-6H-pyrrolo[3,4-b]pyridin-6-yl)-6-fluoro-1-(4-methyl-6-(methylamino)pyridin-3-yl)-4-oxo-1,4-dihydroquinoline-3-carboxylic acid] | ≥ 6.00
11 | CCOC(=O)c1cn(-c2ccc(O)nc2)c2cc(N3Cc4cccnc4C3)c(Cl)cc2c1=O [Example 88, Ethyl 6-chloro-1-(6-hydroxypyridin-3-yl)-4-oxo-7-{5H,7H-pyrrolo[3,4-b]pyridin-6-yl}quinoline-3-carboxylate] | ≥ 6.00
12 | CCOC(=O)c1cn(-c2ccc(N)nc2)c2cc(N3Cc4cccnc4C3)c(Cl)cc2c1=O [Example 89] | ≥ 6.00
13 | CCOC(=O)c1cn(-c2ccc(Cl)nc2)c2cc(N3Cc4cccnc4C3)c(Cl)cc2c1=O [Example 90, Ethyl 6-chloro-1-(6-chloropyridin-3-yl)-7-(5,7-dihydro-6H-pyrrolo[3,4-b]pyridin-6-yl)-4-oxo-1,4-dihydroquinoline-3-carboxylate] | ≥ 6.00
14 | Cc1cc(N2CCC2)ncc1-n1cc(C(=O)O)c(=O)c2cc(Cl)c(N3Cc4cccnc4C3)nc21 [Example 91, 1-(6-(azetidin-1-yl)-4-methylpyridin-3-yl)-6-chloro-7-(5,7-dihydro-6H-pyrrolo[3,4-b]pyridin-6-yl)-4-oxo-1,4-dihydro-1,8-naphthyridine-3-carboxylic acid] | ≥ 6.00
15 | CN(CCO)c1ccn(-c2cc3c(cc2Cl)c(=O)c(C(=O)O)cn3-c2ccc(N)nc2)n1 [Example 92, 1-(6-aminopyridin-3-yl)-6-chloro-7-(3-((2-hydroxyethyl)(methyl)amino)-1H-pyrazol-1-yl)-4-oxo-1,4-dihydroquinoline-3-carboxylic acid] | ≥ 6.00
16 | CN(CCO)c1ccn(-c2nc3c(cc2Cl)c(=O)c(C(=O)O)cn3-c2ccc(N)nc2)n1 [Example 93, 1-(6-aminopyridin-3-yl)-6-chloro-7-(3-((2-hydroxyethyl)(methyl)amino)-1H-pyrazol-1-yl)-4-oxo-1,4-dihydro-1,8-naphthyridine-3-carboxylic acid] | ≥ 6.00
17 | COCCN(C)c1ccn(-c2cc3c(cc2Cl)c(=O)c(C(=O)O)cn3-c2ccc(N)nc2)n1 [Example 94, 1-(6-aminopyridin-3-yl)-6-chloro-7-(3-((2-methoxyethyl)(methyl)amino)-1H-pyrazol-1-yl)-4-oxo-1,4-dihydroquinoline-3-carboxylic acid] | ≥ 6.00
18 | COCCN(C)c1ccn(-c2nc3c(cc2Cl)c(=O)c(C(=O)O)cn3-c2ccc(N)nc2)n1 [Example 95, 1-(6-aminopyridin-3-yl)-6-chloro-7-(3-((2-methoxyethyl)(methyl)amino)-1H-pyrazol-1-yl)-4-oxo-1,4-dihydro-1,8-naphthyridine-3-carboxylic acid] | ≥ 6.00
19 | N#Cc1cc2c(=O)c(C(=O)O)cn(-c3cnc(N)cn3)c2cc1N1Cc2cccnc2C1 [Example 96, 1-(5-aminopyrazin-2-yl)-6-cyano-7-(5,7-dihydro-6H-pyrrolo[3,4-b]pyridin-6-yl)-4-oxo-1,4-dihydroquinoline-3-carboxylic acid] | ≥ 6.00
20 | COCCN1CCC(Cn2cc(C(=O)O)c(=O)c3cc(Cl)c(N4Cc5cccnc5C4)nc32)CC1 [Example 100, 6-chloro-7-(5,7-dihydro-6H-pyrrolo[3,4-b]pyridin-6-yl)-1-((1-(2-methoxyethyl)piperidin-4-yl)methyl)-4-oxo-1,4-dihydro-1,8-naphthyridine-3-carboxylic acid hydro chloride] | ≥ 6.00
21 | O=C(O)c1cn(C2CCOCC2)c2nc(N3Cc4cccnc4C3)c(Cl)cc2c1=O [Example 101, 6-chloro-7-(5,7-dihydro-6H-pyrrolo[3,4-b]pyridin-6-yl)-4-oxo-1-(tetrahydro-2H-pyran-4-yl)-1,4-dihydro-1,8-naphthyridine-3-carboxylic acid] | ≥ 6.00
22 | COc1cnc(-n2cc(C(=O)O)c(=O)c3cc(F)c(N4Cc5cccnc5C4)nc32)cn1 [Example 103, 7-(5,7-dihydro-6H-pyrrolo[3,4-b]pyridin-6-yl)-6-fluoro-1-(5-methoxypyrazin-2-yl)-4-oxo-1,4-dihydro-1,8-naphthyridine-3-carboxylic acid] | ≥ 6.00
23 | Cc1cc(NC(=O)C2CC2)ncc1-n1cc(C(=O)O)c(=O)c2cc(Cl)c(N3Cc4cccnc4C3)cc21 [Example 114, 6-chloro-1-(6-(cyclopropanecarboxamido)-4-methylpyridin-3-yl)-7-(5,7-dihydro-6H-pyrrolo[3,4-b]pyridin-6-yl)-4-oxo-1,4-dihydroquinoline-3-carboxylic acid] | ≥ 6.00
24 | Cc1cc(NC(=O)N2CCOCC2)ncc1-n1cc(C(=O)O)c(=O)c2cc(Cl)c(N3Cc4cccnc4C3)cc21 [Example 115, 6-chloro-7-(5,7-dihydro-6H-pyrrolo[3,4-b]pyridin-6-yl)-1-(4-methyl-6-(morpholine-4-carboxamido)pyridin-3-yl)-4-oxo-1,4-dihydroquinoline-3-carboxylic acid] | ≥ 6.00
25 | Cc1cc(NC(=O)N(C)C)ncc1-n1cc(C(=O)O)c(=O)c2cc(Cl)c(N3Cc4cccnc4C3)cc21 [Example 116, 6-chloro-7-(5,7-dihydro-6H-pyrrolo[3,4-b]pyridin-6-yl)-1-(6-(3,3-dimethylureido)-4-methylpyridin-3-yl)-4-oxo-1,4-dihydroquinoline-3-carboxylic acid] | ≥ 6.00
26 | CCc1cc(N)ncc1-n1cc(C(=O)O)c(=O)c2cc(Cl)c(N3Cc4cccnc4C3)cc21 [Example 117, 1-(6-amino-4-ethylpyridin-3-yl)-6-chloro-7-(5,7-dihydro-6H-pyrrolo[3,4-b]pyridin-6-yl)-4-oxo-1,4-dihydroquinoline-3-carboxylic acid] | ≥ 6.00
27 | Nc1cc(C2CC2)c(-n2cc(C(=O)O)c(=O)c3cc(Cl)c(N4Cc5cccnc5C4)cc32)cn1 [Example 118, 1-(6-amino-4-cyclopropylpyridin-3-yl)-6-chloro-7-(5,7-dihydro-6H-pyrrolo[3,4-b]pyridin-6-yl)-4-oxo-1,4-dihydroquinoline-3-carboxylic acid] | ≥ 6.00
28 | O=C(O)c1cn(CC2CCNCC2)c2cc(N3Cc4cccnc4C3)c(Cl)cc2c1=O [Example 119, 6-chloro-7-(5,7-dihydro-6H-pyrrolo[3,4-b]pyridin-6-yl)-4-oxo-1-(piperidin-4-ylmethyl)-1,4-dihydroquinoline-3-carboxylic acid hydrochloride] | ≥ 6.00
29 | CN1CCC(Cn2cc(C(=O)O)c(=O)c3cc(Cl)c(N4Cc5cccnc5C4)cc32)CC1 [Example 120, 6-chloro-7-(5,7-dihydro-6H-pyrrolo[3,4-b]pyridin-6-yl)-1-((1-methylpiperidin-4-yl)methyl)-4-oxo-1,4-dihydroquinoline-3-carboxylic acid] | ≥ 6.00
